Data from patent US20240398784A1, “C-LINKED ISOQUINOLINE AMIDES AS LRRK2 INHIBITORS, PHARMACEUTICAL COMPOSITIONS, AND USES THEREOF” (Merck Sharp & Dohme LLC, priority 2021, published 2024).

Target: LRRK2 G2019S (Homo sapiens, UniProt Q5S007, G2019S)
Test: LRRK2 G2019S Km ATP LanthaScreen assay
Assay type: biochemical
Settings: read-out: LRRK2 pIC50 (converted)

Chain of LRRK2 G2019S (Q5S007 whole entry G2019S): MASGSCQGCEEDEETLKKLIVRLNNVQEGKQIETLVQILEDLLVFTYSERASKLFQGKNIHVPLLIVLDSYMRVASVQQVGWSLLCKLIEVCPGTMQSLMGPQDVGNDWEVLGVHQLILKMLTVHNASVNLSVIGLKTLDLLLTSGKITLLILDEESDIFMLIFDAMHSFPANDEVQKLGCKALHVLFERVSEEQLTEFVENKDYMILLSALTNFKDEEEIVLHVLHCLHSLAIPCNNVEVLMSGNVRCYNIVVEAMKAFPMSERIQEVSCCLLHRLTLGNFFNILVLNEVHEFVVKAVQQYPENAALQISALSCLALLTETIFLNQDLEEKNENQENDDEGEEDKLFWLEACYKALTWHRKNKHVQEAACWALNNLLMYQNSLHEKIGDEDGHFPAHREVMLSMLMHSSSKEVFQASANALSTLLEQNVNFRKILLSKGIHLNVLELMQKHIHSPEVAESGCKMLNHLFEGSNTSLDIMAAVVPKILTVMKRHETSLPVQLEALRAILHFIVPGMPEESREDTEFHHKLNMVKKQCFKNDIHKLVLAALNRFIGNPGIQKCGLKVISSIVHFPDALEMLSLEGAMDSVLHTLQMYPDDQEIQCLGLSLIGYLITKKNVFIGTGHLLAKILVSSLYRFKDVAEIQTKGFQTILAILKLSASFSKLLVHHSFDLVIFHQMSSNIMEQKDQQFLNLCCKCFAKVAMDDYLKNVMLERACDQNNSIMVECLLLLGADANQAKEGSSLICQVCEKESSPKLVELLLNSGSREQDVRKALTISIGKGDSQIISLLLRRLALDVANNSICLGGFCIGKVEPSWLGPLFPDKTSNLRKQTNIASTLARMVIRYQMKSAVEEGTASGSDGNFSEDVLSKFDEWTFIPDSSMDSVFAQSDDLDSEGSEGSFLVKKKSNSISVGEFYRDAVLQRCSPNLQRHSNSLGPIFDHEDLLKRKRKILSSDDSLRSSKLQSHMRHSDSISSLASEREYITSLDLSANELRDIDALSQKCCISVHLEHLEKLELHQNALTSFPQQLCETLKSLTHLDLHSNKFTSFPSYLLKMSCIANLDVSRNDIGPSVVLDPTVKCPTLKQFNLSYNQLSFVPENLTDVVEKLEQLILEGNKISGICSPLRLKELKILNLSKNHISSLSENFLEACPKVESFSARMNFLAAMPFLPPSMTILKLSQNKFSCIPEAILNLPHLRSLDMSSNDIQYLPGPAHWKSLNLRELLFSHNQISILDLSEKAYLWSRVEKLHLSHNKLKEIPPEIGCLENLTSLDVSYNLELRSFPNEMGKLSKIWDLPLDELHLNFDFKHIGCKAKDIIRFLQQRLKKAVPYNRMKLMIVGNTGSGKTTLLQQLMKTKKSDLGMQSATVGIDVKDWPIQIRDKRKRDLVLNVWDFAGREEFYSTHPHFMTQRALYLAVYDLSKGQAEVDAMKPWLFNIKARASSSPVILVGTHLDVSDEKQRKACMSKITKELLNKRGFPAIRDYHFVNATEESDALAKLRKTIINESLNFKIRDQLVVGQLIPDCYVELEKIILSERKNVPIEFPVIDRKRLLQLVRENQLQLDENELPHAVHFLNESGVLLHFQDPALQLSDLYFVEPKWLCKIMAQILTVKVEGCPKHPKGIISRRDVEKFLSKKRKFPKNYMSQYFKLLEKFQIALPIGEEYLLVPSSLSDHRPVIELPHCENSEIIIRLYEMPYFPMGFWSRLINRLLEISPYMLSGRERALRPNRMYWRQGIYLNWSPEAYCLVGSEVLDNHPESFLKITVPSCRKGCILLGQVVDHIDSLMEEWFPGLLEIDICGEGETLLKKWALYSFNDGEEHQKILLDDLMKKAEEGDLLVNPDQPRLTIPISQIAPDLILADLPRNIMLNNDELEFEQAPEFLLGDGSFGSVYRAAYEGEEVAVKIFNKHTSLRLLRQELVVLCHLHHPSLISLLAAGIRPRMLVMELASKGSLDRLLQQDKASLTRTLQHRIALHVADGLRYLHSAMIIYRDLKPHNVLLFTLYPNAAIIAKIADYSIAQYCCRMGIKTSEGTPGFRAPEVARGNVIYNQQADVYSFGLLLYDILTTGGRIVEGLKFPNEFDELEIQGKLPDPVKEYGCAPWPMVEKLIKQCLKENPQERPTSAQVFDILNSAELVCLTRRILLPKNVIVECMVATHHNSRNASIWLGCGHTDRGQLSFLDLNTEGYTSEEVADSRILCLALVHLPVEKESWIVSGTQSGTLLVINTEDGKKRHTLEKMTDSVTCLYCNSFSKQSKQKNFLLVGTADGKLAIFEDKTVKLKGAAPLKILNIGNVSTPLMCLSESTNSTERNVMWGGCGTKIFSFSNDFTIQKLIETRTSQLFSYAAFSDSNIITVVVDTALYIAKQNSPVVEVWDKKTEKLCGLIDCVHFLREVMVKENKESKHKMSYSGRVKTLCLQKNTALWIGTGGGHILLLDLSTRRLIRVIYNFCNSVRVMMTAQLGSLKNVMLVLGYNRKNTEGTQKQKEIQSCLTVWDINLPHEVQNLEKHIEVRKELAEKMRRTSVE

Compound: CC1(N2CCC(c3cc4cc(NC(=O)C5CC56CCOC6)ncc4cc3Cl)CC2)COCC1F (single isomer, unassigned) [Ex-6.4, (R or S)-N-(7-chloro-6-(1-((3R,4R or 3S,4S)-4-fluoro-3-methyltetrahydrofuran-3-yl)piperidin-4-yl)isoquinolin-3-yl)-5-oxaspiro [2.4] heptane-1-carboxamide]
- IC50: 141 nM

Compound: CC1(N2CCC(c3cc4cc(NC(=O)C5CC56CCOC6)ncc4cc3Cl)CC2)COCC1F (single isomer, unassigned) [Ex-6.5, (R or S)-N-(7-chloro-6-(1-((3R,4R or 3S,4S)-4-fluoro-3-methyltetrahydrofuran-3-yl)piperidin-4-yl)isoquinolin-3-yl)-5-oxaspiro [2.4] heptane-1-carboxamide]
- IC50: 0.537 nM

Compound: CC1(N2CCC(c3cc4cc(NC(=O)C5CC56CCOC6)ncc4cc3Cl)CC2)COCC1F (single isomer, unassigned) [Ex-6.6, (R or S)-N-(7-chloro-6-(1-((3R,4R or 3S,4S)-4-fluoro-3-methyltetrahydrofuran-3-yl)piperidin-4-yl)isoquinolin-3-yl)-5-oxaspiro [2.4] heptane-1-carboxamide]
- IC50: 1.17 nM

Compound: CC1(N2CCC(c3cc4cc(NC(=O)C5CC56CCOC6)ncc4cc3Cl)CC2)COCC1F (single isomer, unassigned) [Ex-6.7, (R or S)-N-(7-chloro-6-(1-((3R,4R or 3S,4S)-4-fluoro-3-methyltetrahydrofuran-3-yl)piperidin-4-yl)isoquinolin-3-yl)-5-oxaspiro [2.4] heptane-1-carboxamide]
- IC50: 1.82 nM

Compound: CC1(N2CCC(c3cc4cc(NC(=O)C5CC56CCOC6)ncc4cc3Cl)CC2)COCC1F (single isomer, unassigned) [Ex-6.8, (R or S)-N-(7-chloro-6-(1-((3R,4R or 3S,4S)-4-fluoro-3-methyltetrahydrofuran-3-yl)piperidin-4-yl)isoquinolin-3-yl)-5-oxaspiro [2.4] heptane-1-carboxamide]
- IC50: 34.7 nM

Compound: CC1COCC1(C)N1CCC(c2cc3cc(NC(=O)C4CC45CCOCC5)ncc3cc2Cl)CC1 (single isomer, unassigned) [Ex-6.9, N-(7-chloro-6-(1-(3,4-dimethyltetrahydrofuran-3-yl)piperidin-4-yl)isoquinolin-3-yl)-6-oxaspiro[2.5]octane-1-carboxamide]
- IC50: 0.813 nM

Compound: CC1COCC1(C)N1CCC(c2cc3cc(NC(=O)C4CC45CCOCC5)ncc3cc2Cl)CC1 (single isomer, unassigned) [Ex-6.10, N-(7-chloro-6-(1-(3,4-dimethyltetrahydrofuran-3-yl)piperidin-4-yl)isoquinolin-3-yl)-6-oxaspiro[2.5]octane-1-carboxamide]
- IC50: 110 nM

Compound: CC1(N2CCC(c3cc4cc(NC(=O)C5C6COCC65)ncc4cc3Cl)CC2)CCOC1 (single isomer, unassigned) [Ex-6.11, N-(7-chloro-6-(1-(3-methyltetrahydrofuran-3-yl)piperidin-4-yl)isoquinolin-3-yl)-3-oxabicyclo[3.1.0]hexane-6-carboxamide]
- IC50: 1.95 nM

Compound: CC1(N2CCC(c3cc4cc(NC(=O)C5C6COCC65)ncc4cc3Cl)CC2)CCOC1 (single isomer, unassigned) [Ex-6.12, N-(7-chloro-6-(1-(3-methyltetrahydrofuran-3-yl)piperidin-4-yl)isoquinolin-3-yl)-3-oxabicyclo[3.1.0]hexane-6-carboxamide]
- IC50: 8.13 nM

Compound: CC(C)(O)C1CC1C(=O)Nc1cc2cc(C3CCN(C4(C)CCOC4)CC3)c(Cl)cc2cn1 (single isomer, unassigned) [Ex-6.13, N-(7-chloro-6-(1-(3-methyltetrahydrofuran-3-yl)piperidin-4-yl)isoquinolin-3-yl)-2-(2-hydroxypropan-2-yl)cyclopropane-1-carboxamide]
- IC50: 5.89 nM

Compound: CC(C)(O)C1CC1C(=O)Nc1cc2cc(C3CCN(C4(C)CCOC4)CC3)c(Cl)cc2cn1 (single isomer, unassigned) [Ex-6.14, N-(7-chloro-6-(1-(3-methyltetrahydrofuran-3-yl)piperidin-4-yl)isoquinolin-3-yl)-2-(2-hydroxypropan-2-yl)cyclopropane-1-carboxamide]
- IC50: 2.69 nM

Compound: CC(C)(O)C1CC1C(=O)Nc1cc2cc(C3CCN(C4(C)CCOC4)CC3)c(Cl)cc2cn1 (single isomer, unassigned) [Ex-6.15, N-(7-chloro-6-(1-(3-methyltetrahydrofuran-3-yl)piperidin-4-yl)isoquinolin-3-yl)-2-(2-hydroxypropan-2-yl)cyclopropane-1-carboxamide]
- IC50: 0.115 nM

Compound: CC1(N2CCC(c3cc4cc(NC(=O)C5CC56CCOCC6)ncc4cc3Cl)CC2)COC(C2CC2)C1 (single isomer, unassigned) [Ex-6.16, N-(7-chloro-6-(1-(5-cyclopropyl-3-methyltetrahydrofuran-3-yl)piperidin-4-yl)isoquinolin-3-yl)-6-oxaspiro[2.5]octane-1-carboxamide]
- IC50: 0.214 nM

Compound: CC1(N2CCC(c3cc4cc(NC(=O)C5CC56CCOCC6)ncc4cc3Cl)CC2)COC(C2CC2)C1 (single isomer, unassigned) [Ex-6.17, N-(7-chloro-6-(1-(5-cyclopropyl-3-methyltetrahydrofuran-3-yl)piperidin-4-yl)isoquinolin-3-yl)-6-oxaspiro[2.5]octane-1-carboxamide]
- IC50: 3.55 nM

Compound: CC1(C)COCC1(C)N1CCC(c2cc3cc(NC(=O)C4CC45CCOCC5)ncc3cc2Cl)CC1 (single isomer, unassigned) [Ex-6.18, N-(7-chloro-6-(1-(3,4,4-trimethyltetrahydrofuran-3-yl)piperidin-4-yl)isoquinolin-3-yl)-6-oxaspiro[2.5]octane-1-carboxamide]
- IC50: 0.708 nM

Compound: CC1(C)COCC1(C)N1CCC(c2cc3cc(NC(=O)C4CC45CCOCC5)ncc3cc2Cl)CC1 (single isomer, unassigned) [Ex-6.19, N-(7-chloro-6-(1-(3,4,4-trimethyltetrahydrofuran-3-yl)piperidin-4-yl)isoquinolin-3-yl)-6-oxaspiro[2.5]octane-1-carboxamide]
- IC50: 39.8 nM

Compound: COC1COCC1(C)N1CCC(c2cc3cc(NC(=O)C4CC45CCOCC5)ncc3cc2Cl)CC1 (single isomer, unassigned) [Ex-6.22, N-(7-chloro-6-(1-(4-methoxy-3-methyltetrahydrofuran-3-yl)piperidin-4-yl)isoquinolin-3-yl)-6-oxaspiro[2.5]octane-1-carboxamide]
- IC50: 0.0813 nM

Compound: COC1COCC1(C)N1CCC(c2cc3cc(NC(=O)C4CC45CCOCC5)ncc3cc2Cl)CC1 (single isomer, unassigned) [Ex-6.23, N-(7-chloro-6-(1-(4-methoxy-3-methyltetrahydrofuran-3-yl)piperidin-4-yl)isoquinolin-3-yl)-6-oxaspiro[2.5]octane-1-carboxamide]
- IC50: 1.82 nM

Compound: CC1(N2CCC(c3cc4cc(NC(=O)C5CC56CCOCC6)ncc4cc3Cl)CC2)COCC1F (single isomer, unassigned) [Ex-6.24, N-(7-chloro-6-(1-(4-fluoro-3-methyltetrahydrofuran-3-yl)piperidin-4-yl)isoquinolin-3-yl)-6-oxaspiro[2.5]octane-1-carboxamide]
- IC50: 0.0813 nM

Compound: CC1(N2CCC(c3cc4cc(NC(=O)C5CC56CCOCC6)ncc4cc3Cl)CC2)COCC1F (single isomer, unassigned) [Ex-6.25, N-(7-chloro-6-(1-(4-fluoro-3-methyltetrahydrofuran-3-yl)piperidin-4-yl)isoquinolin-3-yl)-6-oxaspiro[2.5]octane-1-carboxamide]
- IC50: 1.66 nM
